Experimental data from the NIST ThermoML archive (doi:10.1021/acs.jced.7b00939).
Values joined by “and” are separate entries in the source; they are usually repeats but may differ in a detail not shown here. Equal values may be shown once.

Conditions: Liquid, Vibrating tube method

CCCCC(CC)COC(=O)c1ccc(C(=O)OCC(CC)CCCC)c(C(=O)OCC(CC)CCCC)c1 (stereo unspecified) [tris(2-ethylhexyl) trimellitate]
Conditions	mass density
328.15 K, 5110 kPa	965.697 kg/m3
328.15 K, 10110 kPa	968.884 kg/m3
328.15 K, 20120 kPa	974.939 kg/m3
328.15 K, 30110 kPa	980.701 kg/m3
333.15 K, 100 kPa	959.014 kg/m3 [middle of 4 runs]
353.15 K, 100 kPa	944.616 kg/m3 [middle of 4 runs]
363.15 K, 100 kPa	937.285 kg/m3 and 937.369 kg/m3
363.15 K, 5110 kPa	941.043 kg/m3
363.15 K, 10110 kPa	944.715 kg/m3
363.15 K, 20120 kPa	951.677 kg/m3
363.15 K, 30130 kPa	958.176 kg/m3
363.15 K, 40130 kPa	964.291 kg/m3
363.15 K, 50140 kPa	969.983 kg/m3
373.15 K, 100 kPa	930.229 kg/m3 and 930.252 kg/m3
383.15 K, 100 kPa	923.009 kg/m3 and 923.041 kg/m3 and 923.028 kg/m3
388.15 K, 100 kPa	919.579 kg/m3
388.15 K, 2640 kPa	921.672 kg/m3
388.15 K, 5170 kPa	923.804 kg/m3
388.15 K, 7730 kPa	925.892 kg/m3
388.15 K, 10170 kPa	927.866 kg/m3
388.15 K, 15260 kPa	931.875 kg/m3
388.15 K, 20280 kPa	935.659 kg/m3
388.15 K, 30390 kPa	942.915 kg/m3
388.15 K, 40500 kPa	949.605 kg/m3
388.15 K, 50560 kPa	955.87 kg/m3
388.15 K, 68700 kPa	966.125 kg/m3
393.15 K, 100 kPa	915.76 kg/m3 and 915.768 kg/m3
403.15 K, 100 kPa	908.475 kg/m3 and 908.487 kg/m3 and 908.679 kg/m3
403.15 K, 2640 kPa	910.921 kg/m3
403.15 K, 5110 kPa	912.879 kg/m3
403.15 K, 5170 kPa	913.199 kg/m3
403.15 K, 7690 kPa	915.392 kg/m3
403.15 K, 10110 kPa	917.229 kg/m3
403.15 K, 10220 kPa	917.585 kg/m3
403.15 K, 15270 kPa	921.805 kg/m3
403.15 K, 20110 kPa	925.405 kg/m3
403.15 K, 20320 kPa	925.852 kg/m3
403.15 K, 30120 kPa	932.929 kg/m3
403.15 K, 30380 kPa	933.471 kg/m3
403.15 K, 40120 kPa	939.962 kg/m3
403.15 K, 40430 kPa	940.482 kg/m3
403.15 K, 50130 kPa	946.45 kg/m3
403.15 K, 50540 kPa	947.085 kg/m3
403.15 K, 68140 kPa	957.148 kg/m3
403.15 K, 68470 kPa	957.846 kg/m3
413.15 K, 100 kPa	901.142 kg/m3 and 901.152 kg/m3
423.15 K, 100 kPa	893.777 kg/m3 and 893.78 kg/m3
423.15 K, 2590 kPa	896.162 kg/m3
423.15 K, 5100 kPa	898.654 kg/m3
423.15 K, 7590 kPa	901.053 kg/m3
423.15 K, 10100 kPa	903.407 kg/m3
423.15 K, 20110 kPa	912.286 kg/m3
423.15 K, 30120 kPa	920.442 kg/m3
423.15 K, 40120 kPa	927.911 kg/m3
423.15 K, 50120 kPa	934.915 kg/m3
423.15 K, 68140 kPa	946.287 kg/m3
